Measurements from patent US12679878B2, “CRF2 receptor agonists and their use in therapy” (SANOFI, priority 2020, dated 2026).
Read-outs that look alike come from different tables or passages of the source. Starred links: 1 amine or outer side, 2 acyl side, 3 side chain; linkers in the order of their positions; H or OH if unused. Non-standard residues stand in square brackets, D forms with d. Residues, ends and D or L forms follow the SMILES beside them. Groups on a side chain read outwards from the residue. *: point of attachment. C20 diacid = O=C(O)CCCCCCCCCCCCCCCCCCC(=O)*; C18 diacid = O=C(O)CCCCCCCCCCCCCCCCC(=O)*; γGlu = O=C(O)[C@H](CCC(=O)[*:2])N[*:1]; AEEA = NCCOCCOCC(=O)O; Aib = CC(C)(N)C(=O)O

Tests used:
CRF1R receptor = molecular target: T1, CRF1R receptor (Homo sapiens, UniProt P34998); assay: cAMP activity at anti-target CRF1R, CRF1R-overexpression CHO cell line (Example 9); type: cell-based; conditions: for EC50: 0% HSA
T1 construct: host or cells: CHO-K1 clone 2
T1 sequence (P34998 24-415): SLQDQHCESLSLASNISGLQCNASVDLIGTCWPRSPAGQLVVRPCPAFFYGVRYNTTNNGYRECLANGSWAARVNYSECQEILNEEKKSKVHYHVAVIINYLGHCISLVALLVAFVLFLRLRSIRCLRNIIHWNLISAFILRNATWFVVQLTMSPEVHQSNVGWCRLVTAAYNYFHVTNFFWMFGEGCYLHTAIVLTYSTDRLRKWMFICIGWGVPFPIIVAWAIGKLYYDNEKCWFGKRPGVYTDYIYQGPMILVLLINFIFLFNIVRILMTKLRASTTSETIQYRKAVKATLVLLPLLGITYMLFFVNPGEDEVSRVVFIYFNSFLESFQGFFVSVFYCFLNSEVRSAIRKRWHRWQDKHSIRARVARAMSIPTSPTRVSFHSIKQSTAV
Method in brief: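 cAMP accumulation was read by HTRF after 30 min at room temperature of compound treatment. Cells were cryopreserved CHO cells overexpressing CRF1R, plated at 2000/well in IBMX (2 mM)-containing HBSS/HEPES buffer with 0 or 0.1% HSA. Activity was normalized to 1000 nM UCN2 as 100%.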

human CRF2α receptor = molecular target: T2, human CRF2α receptor (Homo sapiens, UniProt Q13324); assay: cAMP agonism at human CRF2 α receptor in TeloHEAC cells (Example 7); type: cell-based; conditions: cAMP HTRF, TeloHEAC cells stably expressing human CRF2 α
T2 construct: expressed in transfected cells; host or cells: TeloHEAC
T2 sequence (Q13324 1-411): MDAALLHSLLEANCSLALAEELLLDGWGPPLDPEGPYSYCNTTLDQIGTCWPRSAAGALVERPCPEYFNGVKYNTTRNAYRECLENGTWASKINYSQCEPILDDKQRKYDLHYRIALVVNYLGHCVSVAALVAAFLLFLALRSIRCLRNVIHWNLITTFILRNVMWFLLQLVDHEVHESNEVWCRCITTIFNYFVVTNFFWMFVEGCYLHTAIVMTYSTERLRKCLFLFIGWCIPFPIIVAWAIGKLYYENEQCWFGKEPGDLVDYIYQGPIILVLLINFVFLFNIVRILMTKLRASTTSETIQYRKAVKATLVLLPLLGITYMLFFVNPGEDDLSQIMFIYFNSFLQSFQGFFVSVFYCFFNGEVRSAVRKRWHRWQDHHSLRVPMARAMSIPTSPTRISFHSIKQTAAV
Method in brief: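 Thawed frozen stably transfected cells in HBSS/20 mM HEPES (0% or 0.1% HSA) plus 2 mM IBMX were exposed to compound at 2000 cells/well for 30 min at room temperature. Intracellular cAMP was read by HTRF (665/620 nm ratio) after 1 h lysis; EC50 was derived with 1000 nM urocortin 2 set as 100%.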

rat CRF2R α receptor = assay: cAMP agonism at rat CRF2R α receptor in A7R5 rat aortic smooth muscle cells (Example 8); type: cell-based; conditions: cAMP HTRF, A7R5 rat aortic smooth muscle cell line, 0% HSA
Method in brief: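 Thawed cryopreserved A7R5 cells in HBSS/20 mM HEPES (0 or 0.1% HSA) with 2 mM IBMX, 2000 cells/well, were exposed to compound for 30 min at room temperature. cAMP was read by HTRF (665/620 nm ratio) after 1 h with lysis reagents. Activity was normalised to 1000 nM urocortin 2 as 100%, and EC50 was taken as the concentration giving 50% of maximal activation.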

[1] = Physical stability, dynamic light scattering assay (Example 15); type: physicochemical; conditions: for Apparent Rh [nm] 4 weeks / Scattering Intensity (I) [%] 4 weeks: 4 weeks at 40° C.
Method in brief: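 DLS at 837 nm, 150° angle, +25° C; Rh, scattering intensity and mass contribution measured at 0 weeks and after 4 weeks at 40° C. Rh and D compared at 1, 5 and 10 mg/ml as kD surrogate; separate measurements at 300 μM, purity-corrected.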

[2] = CRF1R-overexpression CHO cell line
[3] = CRF1R-overexpression CHO cell line, read-out: Emax (%)
[4] = 0% HSA, read-out: EC50 [nM], 0% HSA
[5] = 0.1% HSA, read-out: EC50 [nM], 0.1% HSA
[6] = Buffer C (20 mM phosphate, pH 6.2)
[7] = Buffer A (100 mM acetate, pH 4.5)
[8] = Buffer D (20 mM phosphate, pH 7.4)

SMILES | EC50 (CRF1R receptor; [2]) [nM] | Emax (CRF1R receptor; [3]) [%] | EC50 (human CRF2α receptor; [4]) [nM] | EC50 (human CRF2α receptor; [5]) [nM] | EC50 (rat CRF2R α receptor) [nM] | Emax (CRF1R receptor; CHO) [%] | Apparent Rh [nm] 0 weeks [1, 6] [nm] | Scattering Intensity (I) [%] 0 weeks [1, 6] [%] | Apparent Rh [nm] 4 weeks [1, 6] [nm] | Scattering Intensity (I) [%] 4 weeks [1, 6] [%] | Apparent Rh [nm] 0 weeks [1, 7] [nm] | Scattering Intensity (I) [%] 0 weeks [1, 7] [%] | Apparent Rh [nm] 4 weeks [1, 7] [nm] | Scattering Intensity (I) [%] 4 weeks [1, 7] [%] | Apparent Rh [nm] 0 weeks [1, 8] [nm] | Scattering Intensity (I) [%] 0 weeks [1, 8] [%] | Apparent Rh [nm] 4 weeks [1, 8] [nm] | Scattering Intensity (I) [%] 4 weeks [1, 8] [%]
CC[C@H](C)[C@H](N)C(=O)N[C@H](C(=O)N[C@@H](CC(C)C)C(=O)N[C@@H](CO)C(=O)N[C@@H](CC(C)C)C(=O)N[C@@H](CC(=O)O)C(=O)N[C@H](C(=O)N1CCC[C@H]1C(=O)N[C@H](C(=O)N[C@@H](CCCCN)C(=O)N[C@@H](CC(C)C)C(=O)N[C@@H](CCCCNC(=O)COCCOCCNC(=O)COCCOCCNC(=O)CC[C@H](NC(=O)CCCCCCCCCCCCCCCCC(=O)O)C(=O)O)C(=O)N[C@@H](CCCCN)C(=O)N[C@H](C(=O)N[C@@H](CC(C)C)C(=O)N[C@@H](CC(C)C)C(=O)N[C@@H](CCC(=O)O)C(=O)N[C@@H](CCC(N)=O)C(=O)N[C@@H](CCC(=O)O)C(=O)N[C@@H](CCCCN)C(=O)N[C@@H](CCC(N)=O)C(=O)N[C@@H](CCCCN)C(=O)N[C@@H](CCCCN)C(=O)N[C@@H](CCC(N)=O)C(=O)N[C@@H](CCCNC(=N)N)C(=O)N[C@@H](CCC(=O)O)C(=O)N[C@@H](CCC(N)=O)C(=O)N[C@@H](C)C(=O)N[C@@H](CCC(=O)O)C(=O)N[C@H](C(=O)N[C@@H](CC(N)=O)C(=O)N[C@@H](CCCCN)C(=O)N[C@@H](CCC(N)=O)C(=O)N[C@H](C(=O)N[C@@H](CC(C)C)C(=O)N[C@@H](C)C(=O)N[C@@H](CCC(N)=O)C(=O)N[C@H](C(N)=O)C(C)C)[C@@H](C)CC)[C@@H](C)O)[C@@H](C)CC)[C@@H](C)CC)C(C)C)C(C)C [compound 35] (H-IVLSLDVPIKLK([AEEA-AEEA-γGlu-C18 diacid])KILLEQEKQKKQREQAETNKQILAQV-NH2; N-terminus assumed) | > 1000 | 1.77 | 0.24 | 3.82 | 0.81 |  |  |  |  |  |  |  |  |  |  |  |  | 
CC[C@H](C)[C@H](NC(=O)[C@H](CCC(N)=O)NC(=O)[C@H](CCC(=O)O)NC(=O)[C@H](CC(C)C)NC(=O)[C@H](CC(C)C)NC(=O)[C@H](CCC(N)=O)NC(=O)[C@H](CCCCN)NC(=O)[C@H](CC(N)=O)NC(=O)[C@H](CCCCN)NC(=O)[C@H](CCC(=O)O)NC(=O)[C@H](C)NC(=O)[C@H](CCC(N)=O)NC(=O)[C@H](CCC(N)=O)NC(=O)[C@H](CCCNC(=N)N)NC(=O)[C@H](CCC(=O)O)NC(=O)[C@H](CCCCN)NC(=O)[C@H](CCCCN)NC(=O)[C@H](CCC(N)=O)NC(=O)[C@H](CCCCN)NC(=O)[C@H](CCC(N)=O)NC(=O)[C@H](CCC(N)=O)NC(=O)[C@H](CCCCN)NC(=O)[C@H](CC(C)C)NC(=O)[C@H](CC(C)C)NC(=O)[C@@H](NC(=O)[C@H](CCC(N)=O)NC(=O)[C@H](CCCCNC(=O)COCCOCCNC(=O)COCCOCCNC(=O)CC[C@H](NC(=O)CCCCCCCCCCCCCCCCCCC(=O)O)C(=O)O)NC(=O)[C@@H](NC(=O)[C@H](CCCCN)NC(=O)[C@@H](NC(=O)[C@@H]1CCCN1C(=O)[C@@H](NC(=O)[C@H](CC(=O)O)NC(=O)[C@H](CC(C)C)NC(=O)[C@H](CO)NC(=O)[C@H](CC(C)C)NC(=O)[C@@H](NC(=O)[C@@H](N)Cc1ccccc1)[C@@H](C)O)C(C)C)[C@@H](C)O)[C@@H](C)CC)[C@@H](C)CC)C(N)=O [compound 59] (H-FTLSLDVPTKIK([AEEA-AEEA-γGlu-C20 diacid])QILLKQQKQKKERQQAEKNKQLLEQI-NH2) |  |  | 0.15 | 17.4 | 0.34 | 11.1 | 3.66 ± 0.05 | 100 ± 0 | 3.75 ± 0.08 | 100 ± 0 |  |  |  |  |  |  |  | 
CC[C@H](C)[C@H](N)C(=O)N[C@H](C(=O)N[C@@H](CC(C)C)C(=O)N[C@@H](CO)C(=O)N[C@@H](CC(C)C)C(=O)N[C@@H](CC(=O)O)C(=O)N[C@H](C(=O)N1CCC[C@H]1C(=O)N[C@H](C(=O)N[C@@H](CCCCN)C(=O)N[C@@H](CC(C)C)C(=O)N[C@@H](CCCCNC(=O)COCCOCCNC(=O)COCCOCCNC(=O)CC[C@H](NC(=O)CCCCCCCCCCCCCCCCC(=O)O)C(=O)O)C(=O)N[C@@H](CCCCN)C(=O)N[C@H](C(=O)N[C@@H](CC(C)C)C(=O)N[C@@H](CC(C)C)C(=O)N[C@@H](CCCCN)C(=O)N[C@@H](CCC(N)=O)C(=O)N[C@@H](CCC(=O)O)C(=O)N[C@@H](CCCNC(=N)N)C(=O)N[C@@H](CCC(N)=O)C(=O)N[C@@H](CCCCN)C(=O)N[C@@H](CCCCN)C(=O)NC(C)(C)C(=O)N[C@@H](CCCNC(=N)N)C(=O)N[C@@H](CCC(=O)O)C(=O)N[C@@H](CCC(N)=O)C(=O)N[C@@H](C)C(=O)N[C@@H](CCC(=O)O)C(=O)N[C@@H](CCCCN)C(=O)N[C@@H](CC(N)=O)C(=O)N[C@@H](CCCCN)C(=O)N[C@@H](CCC(N)=O)C(=O)N[C@H](C(=O)N[C@@H](CC(C)C)C(=O)N[C@@H](C)C(=O)N[C@@H](CCC(N)=O)C(=O)N[C@H](C(N)=O)C(C)C)[C@@H](C)CC)[C@@H](C)CC)[C@@H](C)CC)C(C)C)C(C)C [compound 99] (H-IVLSLDVPIKLK([AEEA-AEEA-γGlu-C18 diacid])KILLKQERQKK[Aib]REQAEKNKQILAQV-NH2) | > 1000 | 3.25 | 0.06 | 1.6 | 0.62 |  |  |  |  |  | 3.32 ± 0.18 | 100 ± 1 | 3.42 ± 0.04 | 99 ± 1 |  |  |  | 
CC[C@H](C)[C@H](N)C(=O)N[C@H](C(=O)N[C@@H](CC(C)C)C(=O)N[C@@H](CO)C(=O)N[C@@H](CC(C)C)C(=O)N[C@@H](CC(=O)O)C(=O)N[C@@H](C(=O)N1CCC[C@H]1C(=O)N[C@H](C(=O)N[C@@H](CCCCN)C(=O)N[C@@H](CC(C)C)C(=O)N[C@@H](CCCCNC(=O)COCCOCCNC(=O)COCCOCCNC(=O)CC[C@H](NC(=O)CCCCCCCCCCCCCCCCC(=O)O)C(=O)O)C(=O)N[C@@H](CCC(N)=O)C(=O)N[C@H](C(=O)N[C@@H](CC(C)C)C(=O)N[C@@H](CC(C)C)C(=O)N[C@@H](CCCCN)C(=O)N[C@@H](CCC(N)=O)C(=O)N[C@@H](CCC(=O)O)C(=O)N[C@@H](CCCNC(=N)N)C(=O)N[C@@H](CCC(N)=O)C(=O)N[C@@H](CCCCN)C(=O)NC(C)(C)C(=O)N[C@@H](CCC(N)=O)C(=O)N[C@@H](CCCNC(=N)N)C(=O)N[C@@H](CCC(N)=O)C(=O)N[C@@H](CCC(N)=O)C(=O)N[C@@H](C)C(=O)N[C@@H](CCC(=O)O)C(=O)N[C@@H](CCCCN)C(=O)N[C@@H](CC(N)=O)C(=O)N[C@@H](CCCCN)C(=O)N[C@@H](CCC(N)=O)C(=O)N[C@H](C(=O)N[C@@H](CC(C)C)C(=O)N[C@@H](C)C(=O)N[C@@H](CCC(N)=O)C(=O)N[C@H](C(N)=O)C(C)C)[C@@H](C)CC)[C@@H](C)CC)[C@@H](C)CC)C(C)C)C(C)C [compound 135] (H-IVLSLD[dV]PIKLK([AEEA-AEEA-γGlu-C18 diacid])QILLKQERQK[Aib]QRQQAEKNKQILAQV-NH2; N-terminus assumed) | > 1000 | 28.4 | 0.04 | 1.48 | 0.13 |  |  |  |  |  | 2.83 ± 0.12 | 99 ± 1 | 3.01 ± 0.03 | 99 ± 1 | 2.54 ± 0.16 | 100 ± 0 | 2.63 ± 0.15 | 100 ± 0
